Reference: ChEMBL document CHEMBL4382286, “Nongenotoxic 3-Nitroimidazo[1,2-a]pyridines Are NTR1 Substrates That Display Potent in Vitro Antileishmanial Activity” (ACS Med Chem Lett, 2019)

Assays:
[1] = test system: Leishmania donovani; experiment: Antileishmanial activity against promastigote stage of Leishmania donovani MHOM/IN/00/DEVI after 72 hrs by MTT assay; format: functional, organism-based
[2] = Cytotoxicity against human HepG2 cells after 72 hrs by MTT assay; format: cell-based
[3] = Selectivity index, ratio of CC50 for human HepG2 cells to IC50 for promastigote stage of Leishmania donovani MHOM/IN/00/DEVI; format: toxicity; conditions: read-out: Ratio CC50/IC50
[4] = test system: Leishmania major; experiment: Antileishmanial activity against promastigote stage of Leishmania major MHOM/IL/81/Friedlin after 72 hrs by MTT assay; format: functional, organism-based
[5] = test system: Leishmania major; experiment: Antileishmanial activity against intracellular amastigote stage of Leishmania major infected in human THP1 cells after 120 hrs by giemsa staining based microscopic analysis; format: functional, organism-based; conditions: THP-1, 120 h
[6] = Solubility of the compound in RPMI medium at 4 to 6 uM; format: physicochemical
[7] = Cytotoxicity against human THP1 cells after 72 hrs by MTT assay; format: cell-based; conditions: THP-1 cells
[8] = Solubility of the compound in RPMI medium at >40 uM; format: physicochemical
[9] = test system: Leishmania donovani; experiment: Antileishmanial activity against intracellular amastigote stage of Leishmania donovani infected in human THP1 cells after 120 hrs by giemsa staining based microscopic analysis; format: functional, organism-based; conditions: THP-1, 120 h
[10] = test system: Leishmania infantum; experiment: Antileishmanial activity against Leishmania infantum axenic amastigotes after 48 hrs by steady-glo luciferase reporter gene assay; format: functional, organism-based
[11] = test system: Trypanosoma brucei brucei; experiment: Antitrypanosomal activity against trypomastigote stage of Trypanosoma brucei brucei AnTat 1.9 assessed as decrease in parasite viability after 69 hrs by Alamar Blue assay; format: functional, organism-based; conditions: AnTat 1.9, 69 h
[12] = Aqueous solubility of the compound at >62.5 uM; format: physicochemical; conditions: buffer
[13] = test system: Trypanosoma cruzi; experiment: Antitrypanosomal activity against Trypanosoma cruzi MHOM/BR/78/Silvio cloneX10/7A epimastigotes measured after 4 days by resazurin dye based fluorescence assay; format: functional, organism-based; conditions: 96 h

Cc1ccc(Sc2cc(Cl)cn3c([N+](=O)[O-])c(CS(=O)(=O)c4ccccc4)nc23)cc1 showed an IC50 [1] of 1400 nM, a CC50 at 72 h [2] greater than 3900 nM and a selectivity ratio [3] greater than 2.2.

With O=[N+]([O-])c1c(CS(=O)(=O)c2ccccc2)nc2c(Sc3ccccc3Cl)cc(Cl)cn12 the IC50 [1] was 1400 nM, the CC50 at 72 h [2] was greater than 5000 nM and the selectivity ratio [3] was greater than 3.6.

C[C@@H]1[C@H](O)[C@@H](C)/C=C/C=C/C=C/C=C/C=C/C=C/C=C/[C@H](O[C@@H]2O[C@H](C)[C@@H](O)[C@H](N)[C@@H]2O)C[C@@H]2O[C@](O)(C[C@@H](O)C[C@@H](O)[C@H](O)CC[C@@H](O)C[C@@H](O)CC(=O)O[C@H]1C)C[C@H](O)[C@H]2C(=O)O [AMPHOTERICIN B] showed an IC50 [4] of 600 nM and an IC50 [5] of 200 nM.

With COc1ccc(Sc2cc(Cl)cn3c([N+](=O)[O-])c(CS(=O)(=O)c4ccccc4)nc23)cc1 the IC50 [1] was 1500 nM, the CC50 at 72 h [2] was greater than 62500 nM and the solubility [6] was “Soluble”. For the same molecule, the selectivity ratio [3] was greater than 41.7.

In the case of O=[N+]([O-])c1c(CS(=O)(=O)c2ccccc2)nc2c(Sc3cccc(Cl)c3Cl)cc(Cl)cn12, the IC50 [1] is reported as 2000 nM, the CC50 at 72 h [2] is reported as greater than 25000 nM and the solubility [6] is reported as “Insoluble”. It also gave a selectivity ratio [3] greater than 12.5.

With O=[N+]([O-])c1c(CS(=O)(=O)c2ccccc2)nc2c(Sc3ccccc3)cc(Cl)cn12 the IC50 [1] was 1700 nM, the CC50 at 72 h [2] was greater than 3900 nM and the selectivity ratio [3] was greater than 2.3.

With O=[N+]([O-])c1c(CS(=O)(=O)c2ccccc2)nc2c(Sc3ccc(Cl)cc3Cl)cc(Cl)cn12 the IC50 [1] was 1700 nM, the CC50 at 72 h [2] was greater than 3900 nM and the selectivity ratio [3] was greater than 2.2.

Work on O=[N+]([O-])c1c(CS(=O)(=O)c2ccccc2)nc2c(Sc3cccc(Cl)c3)cc(Cl)cn12 yielded an IC50 [1] of 700 nM, a CC50 at 72 h [2] greater than 3900 nM and a selectivity ratio [3] greater than 3.6.

In the case of CCCCCCCCCCCCCCCCOP(=O)([O-])OCC[N+](C)(C)C [MILTEFOSINE], the CC50 at 72 h [7] is reported as greater than 40000 nM and the solubility [8] is reported as “Insoluble”.

In the case of COc1cccc(Sc2cc(Cl)cn3c([N+](=O)[O-])c(CS(=O)(=O)c4ccccc4)nc23)c1, the IC50 [1] is reported as 2300 nM, the CC50 at 72 h [2] is reported as greater than 15600 nM and the solubility [6] is reported as “Insoluble”. The selectivity ratio [3] was greater than 6.8.

For CC(C)c1ccc(Sc2cc(Cl)cn3c([N+](=O)[O-])c(CS(=O)(=O)c4ccccc4)nc23)cc1, the IC50 [1] was 1600 nM, the CC50 at 72 h [2] was greater than 25000 nM and the solubility [6] was “Insoluble”. For the same molecule, the selectivity ratio [3] was greater than 15.6.

Work on Nc1c(CS(=O)(=O)c2ccccc2)nc2c(Sc3ccc(Cl)cc3)cc(Cl)cn12 yielded a CC50 at 72 h [2] greater than 62500 nM, an IC50 [9] of 124000 nM and an IC50 [10] of 31600 nM. For the same molecule, the IC50 [11] was 10600 nM and the solubility [12] was “Insoluble”.

For N=C(N)c1ccc(OCCCCCOc2ccc(C(=N)N)cc2)cc1 [PENTAMIDINE], the selectivity ratio [3] was 0.4.

For O=[N+]([O-])c1c(CS(=O)(=O)c2ccccc2)nc2c(SCc3ccc(Cl)cc3)cc(Cl)cn12, the solubility [6] was “Insoluble”.

Molecule O=C(Cn1ccnc1[N+](=O)[O-])NCc1ccccc1 [BENZNIDAZOLE] has an IC50 [13] of 1200 nM.

With O=[N+]([O-])c1c(CS(=O)(=O)c2ccccc2)nc2c(SCc3ccc(Br)cc3)cc(Cl)cn12 the solubility [6] was “Insoluble”.

Work on O=[N+]([O-])c1c(CS(=O)(=O)c2ccccc2)nc2c(Sc3cccc(F)c3)cc(Cl)cn12 yielded an IC50 [1] of 1200 nM, a CC50 at 72 h [2] greater than 3900 nM and a selectivity ratio [3] greater than 2.1.

For COc1ccc(CSc2cc(Cl)cn3c([N+](=O)[O-])c(CS(=O)(=O)c4ccccc4)nc23)cc1, the solubility [6] was “Insoluble”.
